In US4492693A, “Benzothienylglycyl cephalosporin derivatives” (priority 1983, dated 1985):
≈ marks a conversion by molar mass, not a printed value. Where two headings read alike, the source gives them in different places.

Columns and labels:
Type in all cases: cell-based
Staph. aureus = test: Agar Dilution MIC (Table I); details: Staphylococcus aureus
Strep. A = test: Agar Dilution MIC (Table I); details: read-out: Agar Dilution MIC
Strep. D = test: Agar Dilution MIC (Table I); details: for MIC: read-out: Agar Dilution MIC
Text: A typical and preferred compound provided by this invention is 7-(3-benzothienyl)glycylamido-3-methyl-3-cephem-4-carboxylic acid, the compound illustrated in Example 9. The antibacterial activity of this compound has been determined in standard in vitro agar dilution assays against a variety of gram positive and gram negative microorganism. The following Tables present typical minimum inhibitory concentrations (MIC's) in μg/ml for several compounds of the invention when evaluated against the indicated microorganisms. MIC's for several known compounds are also presented for comparison.
Agar Dilution MIC (μg/ml)

E. coli = test: Agar Dilution MIC (Table I); details: Escherichia coli
Klebsiella = test: Agar Dilution MIC (Table I); details: for MIC: Klebsiella, read-out: Agar Dilution MIC
Bacteroides fragilis = test: Expanded anaerobic Spectrum MIC (Table IV)
Haemophilus influenzae = test: Expanded H. influenzae Spectrum MIC (Table IV)
Staph. epi = test: Agar Dilution MIC (Table I); details: read-out: Agar Dilution MIC
Strep. PN = test: Agar Dilution MIC (Table I); details: strain PARK
H. influ. = test: Agar Dilution MIC (Table I); details: read-out: Agar Dilution MIC
[1] = strain X1.1, read-out: Agar Dilution MIC
[2] = geometric mean over strains, read-out: MIC Geometric mean
[3] = mean over strains, read-out: MIC mean
[4] = geometric mean over strains, read-out: MIC Geometric Mean
[5] = read-out: Agar Dilution MIC, strain S13E
[6] = strain V41, read-out: Agar Dilution MIC
[7] = strain X400, read-out: Agar Dilution MIC

Structure (SMILES)	MIC (Staph. aureus; [1])	MIC (Strep. D)	Agar Dilution MIC (Strep. D; strain 2041)	MIC (E. coli; strain EC14)	MIC (Klebsiella)	MIC (Bacteroides fragilis; [2])	MIC (Bacteroides fragilis; [3])	MIC (Bacteroides fragilis; strain 180-821, read-out: MIC)	MIC (Bacteroides fragilis; strain 10668, read-out: MIC)	MIC (Bacteroides fragilis; strain 10695, read-out: MIC)	MIC (Staph. aureus; [5])	MIC (Staph. aureus; [6])	MIC (Staph. aureus; [7])	MIC (Staph. epi; strain 222)	MIC (Strep. A; strain C203)	MIC (Strep. PN)	MIC (H. influ.; strain 76)	MIC (E. coli; strain N10)	MIC (E. coli; strain TEM)	MIC (Klebsiella; strain X26)	also measured
CC1=C(C(=O)O)N2C(=O)[C@@H](NC(=O)[C@H](N)c3ccccc3)[C@H]2SC1 [Cephalexin]	4 µg/mL (≈ 11.5 µM)	128 µg/mL (≈ 368 µM)	128 µg/mL	4 µg/mL (≈ 11.5 µM)	128 µg/mL (≈ 368 µM)	34 µg/mL (≈ 97.9 µM)	40 µg/mL (≈ 115 µM)	16 µg/mL (≈ 46.1 µM)	> 64 µg/mL	64 µg/mL (≈ 184 µM)	–	–	–	–	–	–	–	–	–	–	MIC (Staph. aureus; read-out: Agar Dilution MIC): 128 µg/mL (≈ 368 µM); MIC (Strep. A): 0.5 µg/mL (≈ 1.44 µM); MIC (Bacteroides fragilis; strain 10683, read-out: MIC): > 64 µg/mL; MIC (Bacteroides fragilis; strain 10732, read-out: MIC): 32 µg/mL (≈ 92.1 µM); MIC (Bacteroides fragilis; strain 10750, read-out: MIC): 64 µg/mL (≈ 184 µM); MIC (Bacteroides fragilis; strain 10774, read-out: MIC): > 64 µg/mL; MIC (Bacteroides fragilis; strain 10817, read-out: MIC): 16 µg/mL (≈ 46.1 µM); MIC (Bacteroides fragilis; strain 10837, read-out: MIC): 16 µg/mL (≈ 46.1 µM); MIC (Bacteroides fragilis; strain 107266, read-out: MIC): 32 µg/mL (≈ 92.1 µM); MIC (Bacteroides fragilis; strain 107268, read-out: MIC): 16 µg/mL (≈ 46.1 µM); MIC (Bacteroides fragilis; strain 108133, read-out: MIC): 32 µg/mL (≈ 92.1 µM); MIC (Haemophilus influenzae; [4]): 12 µg/mL (≈ 34.5 µM); MIC (Haemophilus influenzae; [3]): 22 µg/mL (≈ 63.3 µM); MIC (Haemophilus influenzae; strain 105): 4 µg/mL (≈ 11.5 µM); MIC (Haemophilus influenzae; strain 112, read-out: MIC): 16 µg/mL (≈ 46.1 µM)
CC1=C(C(=O)O)N2C(=O)C(NC(=O)[C@@H](N)c3csc4cccc(Cl)c34)C2SC1 (stereo partly drawn) [Ex. 36A, L-7-(4-chloro-3-benzothienyl)glycylamido-3-methyl-3-cephem-4-carboxylic acid]	64 µg/mL (≈ 146 µM)	128 µg/mL (≈ 292 µM)	128 µg/mL	128 µg/mL (≈ 292 µM)	128 µg/mL (≈ 292 µM)	–	–	–	–	–	128 µg/mL (≈ 292 µM)	128 µg/mL (≈ 292 µM)	128 µg/mL (≈ 292 µM)	64 µg/mL (≈ 146 µM)	16 µg/mL (≈ 36.5 µM)	8 µg/mL (≈ 18.3 µM)	4 µg/mL (≈ 9.13 µM)	128 µg/mL (≈ 292 µM)	128 µg/mL (≈ 292 µM)	–	MIC (Staph. epi): 128 µg/mL (≈ 292 µM); MIC (H. influ.): 128 µg/mL (≈ 292 µM); Agar Dilution MIC (Klebsiella; strain KAE): 128 µg/mL; Agar Dilution MIC (Klebsiella; strain X68): 128 µg/mL
CC1=C(C(=O)O)N2C(=O)C(NC(=O)[C@@H](N)c3csc4c(F)cccc34)C2SC1 (stereo partly drawn) [Ex. 21, L-7-(7-Fluoro-3-benzothienyl)glycylamido-3-methyl-3-cephem-4-carboxylic acid]	32 µg/mL (≈ 75.9 µM)	128 µg/mL (≈ 304 µM)	128 µg/mL	128 µg/mL (≈ 304 µM)	128 µg/mL (≈ 304 µM)	–	–	–	–	–	128 µg/mL (≈ 304 µM)	128 µg/mL (≈ 304 µM)	128 µg/mL (≈ 304 µM)	64 µg/mL (≈ 152 µM)	8 µg/mL (≈ 19 µM)	16 µg/mL (≈ 38 µM)	8 µg/mL (≈ 19 µM)	128 µg/mL (≈ 304 µM)	128 µg/mL (≈ 304 µM)	64 µg/mL (≈ 152 µM)	MIC (Staph. epi): 128 µg/mL (≈ 304 µM); MIC (H. influ.; strain C.L.): 64 µg/mL (≈ 152 µM); Agar Dilution MIC (Klebsiella; strain X68): 128 µg/mL
CC1=C(C(=O)O)N2C(=O)C(NC(=O)C(N)c3cc4ccccc4s3)C2SC1 (stereo not drawn) [Compound B, 7-(2-benzothienyl)glycylamido-3-methyl-3-cephem-4-carboxylic acid]	–	–	–	–	–	15 µg/mL (≈ 37.2 µM)	27 µg/mL (≈ 66.9 µM)	2 µg/mL (≈ 4.96 µM)	64 µg/mL (≈ 159 µM)	16 µg/mL (≈ 39.7 µM)	–	–	–	–	–	–	–	–	–	–	MIC (Bacteroides fragilis; strain 10732, read-out: MIC): 4 µg/mL (≈ 9.91 µM); MIC (Bacteroides fragilis; strain 10750, read-out: MIC): 64 µg/mL (≈ 159 µM); MIC (Bacteroides fragilis; strain 10774, read-out: MIC): 64 µg/mL (≈ 159 µM); MIC (Bacteroides fragilis; strain 10817, read-out: MIC): 4 µg/mL (≈ 9.91 µM); MIC (Bacteroides fragilis; strain 10837, read-out: MIC): 16 µg/mL (≈ 39.7 µM); MIC (Bacteroides fragilis; strain 107266, read-out: MIC): 4 µg/mL (≈ 9.91 µM); MIC (Bacteroides fragilis; strain 107268, read-out: MIC): 16 µg/mL (≈ 39.7 µM); MIC (Bacteroides fragilis; strain 108133, read-out: MIC): 16 µg/mL (≈ 39.7 µM); MIC (Haemophilus influenzae; [4]): 2 µg/mL (≈ 4.96 µM); MIC (Haemophilus influenzae; [3]): 3 µg/mL (≈ 7.44 µM); MIC (Haemophilus influenzae; strain 102): 16 µg/mL (≈ 39.7 µM); MIC (Haemophilus influenzae; strain 104, read-out: MIC): 2 µg/mL (≈ 4.96 µM); MIC (Haemophilus influenzae; strain 107): 4 µg/mL (≈ 9.91 µM); MIC (Haemophilus influenzae; strain 109, read-out: MIC): 1 µg/mL (≈ 2.48 µM); MIC (Haemophilus influenzae; strain 110): 4 µg/mL (≈ 9.91 µM); MIC (Haemophilus influenzae; strain 112, read-out: MIC): 8 µg/mL (≈ 19.8 µM); MIC (Haemophilus influenzae; strain 113, read-out: MIC): 2 µg/mL (≈ 4.96 µM); MIC (Haemophilus influenzae; strain 114, read-out: MIC): 2 µg/mL (≈ 4.96 µM)
CC1=C(C(=O)O)N2C(=O)C(NC(=O)[C@@H](N)c3csc4cc(Cl)ccc34)C2SC1 (stereo partly drawn) [Ex. 37A, L-7-(6-Chloro-3-benzothienyl)glycylamido-3-methyl-3-cephem-4-carboxylic acid]	16 µg/mL (≈ 36.5 µM)	–	–	128 µg/mL (≈ 292 µM)	–	–	–	–	–	–	64 µg/mL (≈ 146 µM)	64 µg/mL (≈ 146 µM)	128 µg/mL (≈ 292 µM)	32 µg/mL (≈ 73.1 µM)	4 µg/mL (≈ 9.13 µM)	16 µg/mL (≈ 36.5 µM)	2 µg/mL (≈ 4.57 µM)	128 µg/mL (≈ 292 µM)	128 µg/mL (≈ 292 µM)	64 µg/mL (≈ 146 µM)	MIC (Staph. epi; strain EPI1): 64 µg/mL (≈ 146 µM); MIC (Strep. D; strain 2041): 128 µg/mL (≈ 292 µM); MIC (Strep. D; strain X66): 128 µg/mL (≈ 292 µM); MIC (H. influ.; strain C.L.): 128 µg/mL (≈ 292 µM); MIC (Klebsiella; strain KAE): 128 µg/mL (≈ 292 µM); MIC (Klebsiella; strain X68): 128 µg/mL (≈ 292 µM)
CC1=C(C(=O)O)N2C(=O)C(NC(=O)[C@H](N)c3csc4ccc(Cl)cc34)C2SC1 (stereo partly drawn) [Ex. 38B, D-7-(5-chloro-3-benzothienyl)glycylamido-3-methyl-3-cephem-4-carboxylic acid]	1 µg/mL (≈ 2.28 µM)	–	–	64 µg/mL (≈ 146 µM)	–	–	–	–	–	–	–	4 µg/mL (≈ 9.13 µM)	8 µg/mL (≈ 18.3 µM)	2 µg/mL (≈ 4.57 µM)	0.25 µg/mL (≈ 0.571 µM)	0.25 µg/mL (≈ 0.571 µM)	–	64 µg/mL (≈ 146 µM)	64 µg/mL (≈ 146 µM)	2 µg/mL (≈ 4.57 µM)	MIC (Staph. epi; strain EPI1): 4 µg/mL (≈ 9.13 µM); MIC (Strep. D; strain 2041): 32 µg/mL (≈ 73.1 µM); MIC (Strep. D; strain X66): 64 µg/mL (≈ 146 µM); MIC (Klebsiella; strain KAE): 64 µg/mL (≈ 146 µM); MIC (Klebsiella; strain X68): 64 µg/mL (≈ 146 µM)
